Patent publication US10125098B2, “Therapeutic compounds and methods of use thereof” (GENENTECH, INC., priority 2014, dated 2018)
Where a name gives a salt, the structure may show the parent alone. Read-outs that look alike come from different tables or passages of the source.

What was measured:
hNav1.7 = target: T1, hNav1.7 (Homo sapiens, UniProt Q15858); assay: Tritiated compound binding (LBA) to membranes from cells expressing hNav1.7 and the β1 subunit, competitive binding; conditions: competitive binding vs 100 pM [3H]compound, 18 h, room temperature, membranes with hNav1.7 and β1 subunit
T1 construct: expressed in transfected cells
T1 sequence (Q15858 1-1977 isoform Q15858-3): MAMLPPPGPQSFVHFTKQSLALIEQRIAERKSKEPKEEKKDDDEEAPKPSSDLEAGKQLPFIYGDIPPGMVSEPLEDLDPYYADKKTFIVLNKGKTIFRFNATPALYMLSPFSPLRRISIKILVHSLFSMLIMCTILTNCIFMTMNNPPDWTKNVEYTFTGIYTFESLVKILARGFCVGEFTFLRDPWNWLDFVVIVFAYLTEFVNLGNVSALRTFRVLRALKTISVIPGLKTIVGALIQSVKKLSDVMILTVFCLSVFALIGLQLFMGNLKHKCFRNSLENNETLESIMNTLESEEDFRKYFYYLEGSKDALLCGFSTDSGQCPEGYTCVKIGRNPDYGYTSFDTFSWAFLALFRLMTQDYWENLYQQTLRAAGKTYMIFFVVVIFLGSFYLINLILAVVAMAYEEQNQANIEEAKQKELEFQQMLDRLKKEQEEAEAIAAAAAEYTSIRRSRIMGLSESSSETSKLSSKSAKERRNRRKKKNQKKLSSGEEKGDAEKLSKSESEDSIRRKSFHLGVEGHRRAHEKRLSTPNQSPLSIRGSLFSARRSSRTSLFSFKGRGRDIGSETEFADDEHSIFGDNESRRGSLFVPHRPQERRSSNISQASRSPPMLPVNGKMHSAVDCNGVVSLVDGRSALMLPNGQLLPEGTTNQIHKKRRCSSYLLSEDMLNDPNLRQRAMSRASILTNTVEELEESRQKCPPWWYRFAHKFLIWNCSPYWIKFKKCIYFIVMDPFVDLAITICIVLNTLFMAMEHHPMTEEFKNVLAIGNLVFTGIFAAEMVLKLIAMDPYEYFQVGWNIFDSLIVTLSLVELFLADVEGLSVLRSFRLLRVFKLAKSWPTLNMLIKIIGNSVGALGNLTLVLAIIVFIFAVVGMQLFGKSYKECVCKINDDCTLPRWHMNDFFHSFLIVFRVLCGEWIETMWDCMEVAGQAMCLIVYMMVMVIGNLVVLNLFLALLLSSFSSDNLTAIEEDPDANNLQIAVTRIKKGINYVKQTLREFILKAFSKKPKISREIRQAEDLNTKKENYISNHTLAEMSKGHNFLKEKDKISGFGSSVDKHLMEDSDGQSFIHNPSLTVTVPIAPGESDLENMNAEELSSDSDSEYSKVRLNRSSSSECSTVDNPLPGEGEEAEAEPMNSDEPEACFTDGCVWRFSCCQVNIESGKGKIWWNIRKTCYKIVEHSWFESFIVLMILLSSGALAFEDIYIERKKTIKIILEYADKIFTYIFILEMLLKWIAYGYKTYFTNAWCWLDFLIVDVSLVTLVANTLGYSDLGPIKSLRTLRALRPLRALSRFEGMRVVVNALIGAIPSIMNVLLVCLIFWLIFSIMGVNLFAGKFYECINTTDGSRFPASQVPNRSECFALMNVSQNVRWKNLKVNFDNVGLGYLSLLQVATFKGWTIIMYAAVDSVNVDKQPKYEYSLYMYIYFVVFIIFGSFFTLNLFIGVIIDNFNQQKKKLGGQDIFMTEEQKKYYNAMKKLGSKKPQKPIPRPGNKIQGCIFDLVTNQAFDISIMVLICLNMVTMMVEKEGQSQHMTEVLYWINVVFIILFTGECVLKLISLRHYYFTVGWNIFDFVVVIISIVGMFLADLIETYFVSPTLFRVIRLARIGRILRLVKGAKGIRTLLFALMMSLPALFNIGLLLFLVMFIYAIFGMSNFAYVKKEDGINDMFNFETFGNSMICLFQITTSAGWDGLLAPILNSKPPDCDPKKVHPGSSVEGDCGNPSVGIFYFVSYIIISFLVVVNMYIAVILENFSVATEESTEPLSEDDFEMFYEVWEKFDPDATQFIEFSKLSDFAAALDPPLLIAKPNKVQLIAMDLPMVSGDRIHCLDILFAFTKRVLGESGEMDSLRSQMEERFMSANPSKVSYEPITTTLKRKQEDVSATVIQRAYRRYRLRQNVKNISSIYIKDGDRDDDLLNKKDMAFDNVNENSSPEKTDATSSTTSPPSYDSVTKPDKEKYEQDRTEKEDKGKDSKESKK
T1 sequence (Q07699 19-218 partner): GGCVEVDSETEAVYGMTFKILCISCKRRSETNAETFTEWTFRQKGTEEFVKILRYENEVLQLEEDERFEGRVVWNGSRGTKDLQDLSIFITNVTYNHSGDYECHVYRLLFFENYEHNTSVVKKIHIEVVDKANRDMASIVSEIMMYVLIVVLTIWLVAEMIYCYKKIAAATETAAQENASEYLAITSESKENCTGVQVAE
Method in brief: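 Membranes from cells expressing hNav1.7 with β1 were incubated 18 h at room temperature with 100 pM tritiated formula (I) compound and increasing test compound, in 100 mM NaCl, 20 mM Tris HCl pH 7.4, 0.01% BSA.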

human NaV1.7 = target: T2, human NaV1.7 (Homo sapiens, UniProt Q15858); assay: Patch voltage clamp electrophysiology assay (EP), NaV1.7; type: cell-based; conditions: HEK-293 cells stably expressing NaV1.7 with β1 subunit; whole-cell patch clamp, membrane potential −60 mV (inactivated state)
T2 construct: permanently transfected with an expression vector containing the full-length cDNA coding for the desired human sodium channel α-subunit; expressed in transfected cells; host or cells: HEK-293
T2 sequence (Q15858 1-1977 isoform Q15858-3): as the sequence (Q15858 1-1977 isoform Q15858-3) above
T2 sequence (Q07699 19-218 partner): as the sequence (Q07699 19-218 partner) above
Method in brief: (§1)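 HEK-293 cells stably expressing human α-subunit with β1; whole-cell patch clamp (PatchXpress or manual), ambient temperature, pH 7.4 external NaCl, CsF internal. Held at −60 mV (full inactivation), stepped to −150 mV for 20 ms, then test pulse; percent current decrease after compound wash-on taken as block.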

NaV1.5 = target: T3, NaV1.5 (Homo sapiens, UniProt Q14524); assay: Patch voltage clamp electrophysiology assay (EP), NaV1.5; type: cell-based
T3 construct: permanently transfected with an expression vector containing the full-length cDNA coding for the desired human sodium channel α-subunit; expressed in transfected cells; host or cells: HEK-293
T3 sequence (Q14524 whole entry): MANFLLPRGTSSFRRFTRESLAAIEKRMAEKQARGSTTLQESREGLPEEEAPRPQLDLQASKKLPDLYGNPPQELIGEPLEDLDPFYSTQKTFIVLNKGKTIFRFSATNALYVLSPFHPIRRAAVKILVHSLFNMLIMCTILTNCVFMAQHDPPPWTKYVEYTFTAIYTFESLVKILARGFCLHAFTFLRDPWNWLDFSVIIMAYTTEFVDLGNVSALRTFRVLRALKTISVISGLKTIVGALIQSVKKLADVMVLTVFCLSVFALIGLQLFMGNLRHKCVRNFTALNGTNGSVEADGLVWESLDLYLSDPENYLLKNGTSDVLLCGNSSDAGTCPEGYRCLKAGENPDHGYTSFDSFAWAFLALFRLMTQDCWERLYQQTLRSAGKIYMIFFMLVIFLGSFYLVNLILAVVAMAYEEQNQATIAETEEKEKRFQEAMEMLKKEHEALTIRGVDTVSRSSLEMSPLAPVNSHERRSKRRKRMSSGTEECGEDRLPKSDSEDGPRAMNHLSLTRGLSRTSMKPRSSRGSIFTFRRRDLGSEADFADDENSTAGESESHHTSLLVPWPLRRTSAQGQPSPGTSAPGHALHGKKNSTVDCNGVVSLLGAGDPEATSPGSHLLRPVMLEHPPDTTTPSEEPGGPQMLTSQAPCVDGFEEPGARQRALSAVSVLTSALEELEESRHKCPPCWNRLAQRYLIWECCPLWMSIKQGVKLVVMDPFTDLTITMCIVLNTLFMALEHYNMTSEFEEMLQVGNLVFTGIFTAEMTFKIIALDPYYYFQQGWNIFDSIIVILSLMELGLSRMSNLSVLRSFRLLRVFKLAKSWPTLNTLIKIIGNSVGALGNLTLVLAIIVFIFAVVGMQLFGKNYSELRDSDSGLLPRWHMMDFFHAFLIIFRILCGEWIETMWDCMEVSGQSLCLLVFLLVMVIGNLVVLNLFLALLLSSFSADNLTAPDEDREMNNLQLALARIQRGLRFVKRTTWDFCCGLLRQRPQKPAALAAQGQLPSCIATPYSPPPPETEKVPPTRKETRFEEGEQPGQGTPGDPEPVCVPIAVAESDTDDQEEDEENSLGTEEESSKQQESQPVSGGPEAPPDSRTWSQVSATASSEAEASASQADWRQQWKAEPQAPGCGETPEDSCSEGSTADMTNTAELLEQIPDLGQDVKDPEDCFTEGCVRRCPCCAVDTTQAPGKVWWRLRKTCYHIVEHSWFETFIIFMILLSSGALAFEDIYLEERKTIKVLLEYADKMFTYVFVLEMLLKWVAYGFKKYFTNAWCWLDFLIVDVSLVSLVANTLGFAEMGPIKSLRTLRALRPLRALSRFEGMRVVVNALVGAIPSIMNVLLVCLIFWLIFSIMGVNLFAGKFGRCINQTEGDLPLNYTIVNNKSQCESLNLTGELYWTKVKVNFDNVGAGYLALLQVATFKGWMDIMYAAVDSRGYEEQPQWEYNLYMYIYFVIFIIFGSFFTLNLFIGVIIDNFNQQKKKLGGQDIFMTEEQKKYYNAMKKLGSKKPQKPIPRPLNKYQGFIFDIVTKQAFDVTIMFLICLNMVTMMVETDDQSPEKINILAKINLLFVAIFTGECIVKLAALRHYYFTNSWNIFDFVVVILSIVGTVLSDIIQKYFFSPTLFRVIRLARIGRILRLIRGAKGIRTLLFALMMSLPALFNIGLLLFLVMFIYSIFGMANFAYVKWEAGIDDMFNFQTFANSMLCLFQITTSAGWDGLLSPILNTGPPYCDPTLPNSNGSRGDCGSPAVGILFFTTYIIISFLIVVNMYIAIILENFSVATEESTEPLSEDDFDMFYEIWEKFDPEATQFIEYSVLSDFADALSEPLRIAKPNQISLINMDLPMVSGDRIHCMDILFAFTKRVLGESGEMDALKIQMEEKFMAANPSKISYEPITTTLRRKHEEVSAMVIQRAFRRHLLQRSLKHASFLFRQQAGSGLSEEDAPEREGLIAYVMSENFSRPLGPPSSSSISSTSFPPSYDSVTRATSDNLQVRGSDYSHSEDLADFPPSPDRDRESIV
Method in brief: as §1

[1] = human, HEK-293 cells stably expressing human NaV1.5 with β1 subunit, pH 7.4, HEK-293 cells stably expressing NaV1.5 with β1 subunit, whole-cell patch clamp, membrane potential −60 mV (inactivated state)
[2] = HEK-293 cells stably expressing NaV1.5 with β1 subunit, whole-cell patch clamp, membrane potential −60 mV (inactivated state), read-out: Nav1.5

SMILES	IC50 (hNav1.7)	IC50 (human NaV1.7)	IC50 (NaV1.5; [1])	IC50 (NaV1.5)	IC50 (NaV1.5; [2])
O=C(O)[C@@H]1CC2(CC2)CN1C(=O)c1cc(C2CC2)c(OCC2(F)CCN(Cc3ccc(C(F)(F)F)cc3Cl)CC2)cc1F [Example 124, (S)-5-(4-((1-(2-chloro-4-(trifluoromethyl)benzyl)-4-fluoropiperidin-4-yl)methoxy)-5-cyclopropyl-2-fluorobenzoyl)-5-azaspiro[2.4]heptane-6-carboxylic acid]	400 nM	1500 nM	–	12 µM	–
CC(c1cc(Cl)cc(Cl)c1)N1CCC(COc2cc(F)c(C(=O)N3CCC[C@H]3C(=O)O)cc2C2CC2)CC1 (single isomer, unassigned) [Example 79b]	73 nM	790 nM	≥ 30 µM	–	–
COC[C@H](c1cc(Cl)cc(Cl)c1)N1CCC(COc2cc(F)c(C(=O)N3C[C@H](F)C[C@H]3C(=O)O)cc2C2CC2)CC1 [Example 130, (2S,4R)-1-(5-cyclopropyl-4-((1-((S)-1-(3,5-dichlorophenyl)-2-methoxyethyl)piperidin-4-yl)methoxy)-2-fluorobenzoyl)-4-fluoropyrrolidine-2-carboxylic acid]	27 nM	160 nM	–	–	14 µM
C[C@H]1OCN(C(=O)c2cc(C3CC3)c(OCC3CCN(Cc4c(Cl)cccc4Cl)CC3)cc2F)[C@@H]1C(=O)O [Example 224, (4S,5R)-3-(5-cyclopropyl-4-((1-(2,6-dichlorobenzyl)piperidin-4-yl)methoxy)-2-fluorobenzoyl)-5-methyloxazolidine-4-carboxylic acid]	14 nM	100 nM	–	–	22 µM
O=C(O)[C@@H]1CCCN1C(=O)c1cc(C2CC2)c(COc2cnc(OCC(F)(F)C(F)F)c(C3CC3)c2)cc1F [Example 184, (S)-1-(5-cyclopropyl-4-(((5-cyclopropyl-6-(2,2,3,3-tetrafluoropropoxy)pyridin-3-yl)oxy)methyl)-2-fluorobenzoyl)pyrrolidine-2-carboxylic acid]	460 nM	1300 nM	–	–	23 µM
O=C(O)C[C@H](NC(=O)c1cc(C2CC2)c(OCC23CC4CC(CC(C4)C2)C3)cc1F)C(=O)O [Example 84, (S)-2-(4-(adamantan-1-ylmethoxy)-5-cyclopropyl-2-fluorobenzamido)succinic acid]	≥ 10000 nM	17000 nM	≥ 30 µM	–	–
O=C(O)[C@@H]1CCCN1C(=O)c1cc(C2CC2)c(OC[C@H]2CCN(C(c3ccccc3)c3ccccc3)C2)cc1F (single isomer, unassigned) [Example 139a]	650 nM	5000 nM	–	–	25 µM
CC(c1cc(Cl)cc(Cl)c1)N1CCC(COc2cc(F)c(C(=O)N3C[C@H](F)C[C@H]3C(=O)O)cc2C2CC2)CC1 (stereo partly drawn) [Example 91, (2S, 4R)-1-(5-cyclopropyl-4-((1-(1-(3,5-dichlorophenyl)ethyl)piperidin-4-yl)methoxy)-2-fluorobenzoyl)-4-fluoropyrrolidine-2-carboxylic acid]	15 nM	300 nM	–	–	23 µM
C[C@H]1C[C@@H](C(=O)O)N(C(=O)c2cc(C3CC3)c(OCC34CC5CC(CC(C5)C3)C4)cc2F)C1 [Example 148, (2S,4S)-1-[4-(1-adamantylmethoxy)-5-cyclopropyl-2-fluoro-benzoyl]-4-methyl-pyrrolidine-2-carboxylic acid]	49 nM	620 nM	–	–	17 µM
CC1(C)CCC(COc2cc(F)c(C(=O)N3CCC[C@H]3C(=O)O)cc2C2CC2)CC1 [Example 68, (S)-1-(5-cyclopropyl-4-((4,4-dimethylcyclohexyl)methoxy)-2-fluorobenzoyl)pyrrolidine-2-carboxylic acid]	100 nM	520 nM	–	–	19 µM
COC1(C(F)(F)F)C[C@@H](C(=O)O)N(C(=O)c2cc(C3CC3)c(OCC34CC5CC(CC(C5)C3)C4)cc2F)C1 (stereo partly drawn) [Example 214, (2S)-1-(4-((Adamantan-1-yl)methoxy)-5-cyclopropyl-2-fluorobenzoyl)-4-methoxy-4-(trifluoromethyl)pyrrolidine-2-carboxylic acid]	9700 nM	8200 nM	–	–	11 µM

Now from value to molecule, other results behind:

IC50 (hNav1.7)	IC50 (human NaV1.7)	SMILES	IC50 (NaV1.5; [1])	IC50 (NaV1.5)	IC50 (NaV1.5; [2])
2700 nM	19000 nM	O=C(O)[C@@H]1CCCN1C(=O)c1cc(Cl)c(Oc2cnc(OCC(F)(F)F)c(Cl)c2)cc1F [Example 191, (S)-1-(5-Chloro-4-((5-chloro-6-(2,2,2-trifluoroethoxy)pyridin-3-yl)oxy)-2-fluorobenzoyl)pyrrolidine-2-carboxylic acid trifluoroacetate]	≥ 30 µM	–	–
36 nM	230 nM	C[C@@H]1[C@@H](C(=O)O)N(C(=O)c2cc(C3CC3)c(OCC3(F)CCN(Cc4cc(C(F)(F)F)ccc4Cl)CC3)cc2F)C[C@@H]1F [Example 111, (2S,3R,4R)-1-(4-((1-(2-chloro-5-(trifluoromethyl)benzyl)-4-fluoropiperidin-4-yl)methoxy)-5-cyclopropyl-2-fluorobenzoyl)-4-fluoro-3-methylpyrrolidine-2-carboxylic acid]	–	–	14 µM
26 nM	340 nM	CC(c1ccc(Cl)cc1Cl)N1CCC(COc2cc(F)c(C(=O)N3C[C@H](F)C[C@H]3C(=O)O)cc2C2CC2)CC1 (stereo partly drawn) [Example 174]	≥ 30 µM	–	–
50 nM	230 nM	O=C(O)[C@@H]1CCCN1C(=O)c1cc(C2CC2)c(OCC2CCN(Cc3cc(Cl)ccc3C(F)(F)F)CC2)cc1F [Example 181, (S)-1-(4-((1-(5-chloro-2-(trifluoromethyl)benzyl)piperidin-4-yl)methoxy)-5-cyclopropyl-2-fluorobenzoyl)pyrrolidine-2-carboxylic acid]	≥ 30 µM	–	–
14 nM	170 nM	O=C(O)[C@@H]1C[C@@H](F)CN1C(=O)c1cc(C2CC2)c(OCC2CCN([C@H](c3cc(Cl)cc(Cl)c3)C(F)(F)F)CC2)cc1F (single isomer, unassigned) [Example 140a]	–	–	2.7 µM
120 nM	2300 nM	C[C@H](c1cc(Cl)cc(Cl)c1)N1CCC(C#N)(COc2cc(F)c(C(=O)N3C[C@H](F)C[C@H]3C(=O)O)cc2C2CC2)CC1 (single isomer, unassigned) [Example 126a]	–	–	10 µM
470 nM	3600 nM	O=C(NO)[C@@H]1C[C@@H](F)CN1C(=O)c1cc(C2CC2)c(OCC23CC4CC(CC(C4)C2)C3)cc1F [Example 199, 1-(4-(adamantan-1-ylmethoxy)-5-cyclopropyl-2-fluorobenzoyl)-4-fluoro-N-hydroxypyrrolidine-2-carboxamide]	–	–	15 µM
17 nM	220 nM	O=C(O)[C@@H]1C[C@@H](F)CN1C(=O)c1cc(C2CC2)c(OCC2CCN(Cc3cc(F)c(Cl)cc3Cl)CC2)cc1F [Example 108, (2S,4R)-1-(5-cyclopropyl-4-((1-(2,4-dichloro-5-fluorobenzyl)piperidin-4-yl)methoxy)-2-fluorobenzoyl)-4-fluoropyrrolidine-2-carboxylic acid]	–	–	9.6 µM
200 nM	36.1 nM	C[C@H](NC(=O)c1cc(C2CC2)c(OCC23CC4CC(CC(C4)C2)C3)cc1F)C(=O)O [Example 11, (S)-2-(4-(adamantan-1-ylmethoxy)-5-cyclopropyl-2-fluorobenzamido)propanoic acid]	–	–	2.19 µM
